Reference: US10851129B2, “Composition, crocins active site, and uses thereof” (Jinan University, priority 2016, dated 2020)

Test system: SH-SY5Y nerve cells
Assay: Neuroprotection in SH-SY5Y cell damage model induced by L-glutamic acid (MTT)
Type: cell-based
Conditions: L-glutamic acid 160 mM, 24 h, effective rate %
Experimental: SH-SY5Y nerve cells were cultured in DMEM medium (containing 5% fetal calf serum by volume fraction) which were placed in an incubator containing 5% CO2 under 37° C. They were subcultured once every 3-4 days. Cells in logarithmic phase were used for test
SH-SY5Y cells were inoculated in a 96-well plate at a concentration of 5×10^3 and continued to culture for 24 h. […] 3 parallel wells were arranged for each concentration. They were continued to culture for 24 h. 24 h later, the supernatant was pipetted out and discarded. 100 μL MTT (0.5 mg/mL) was added into each well. They were further incubated for 4 h. Then the supernatant was pipetted out and discarded. 150 μL DMSO was added into each well. They were vibrated for 10 min. A wavelength of 570 nm was selected. The absorbance value was measured on a microplate reader^[13]. (effective rate %=(ODdrug−ODmodel)/(ODcontrol−ODmodel)*100).

## CC(/C=C/C=C(\C)C(=O)O[C@@H]1OC(CO)[C@@H](O)C(O)C1O)=C\C=C\C=C(C)\C=C\C=C(/C)C(=O)O[C@@H]1OC(CO[C@@H]2OC(CO)[C@@H](O)C(O)C2O)[C@@H](O)C(O)C1O (stereo partly drawn) [Compound 2, crocetin-β-D-glucopyranosyl-β-D-gentiobioside]
Drug 10^−5 moL/L
  Neuroprotective effective rate (recovery of viability relative to glutamate model): 0.00 ± 0.00%
Drug 10^−6 moL/L
  Neuroprotective effective rate (recovery of viability relative to glutamate model): 0.00 ± 0.00%
Drug 10^−7 moL/L
  Neuroprotective effective rate (recovery of viability relative to glutamate model): 0.00 ± 0.00%

## CC(/C=C/C=C(\C)C(=O)O[C@@H]1OC(CO)[C@@H](O)C(O)C1O)=C\C=C\C=C(C)\C=C\C=C(/C)C(=O)O[C@@H]1OC(CO)[C@@H](O)C(O)C1O (stereo partly drawn) [Compound 3, crocetin di-β-D-glucopyranoside]
Drug 10^−5 moL/L
  Neuroprotective effective rate (recovery of viability relative to glutamate model): 0.00 ± 0.00%
Drug 10^−6 moL/L
  Neuroprotective effective rate (recovery of viability relative to glutamate model): 0.00 ± 0.00%
Drug 10^−7 moL/L
  Neuroprotective effective rate (recovery of viability relative to glutamate model): 0.00 ± 0.00%

## CC(/C=C/C=C(\C)C(=O)O[C@@H]1O[C@H](CO[C@@H]2O[C@H](CO)[C@@H](O)[C@H](O)[C@H]2O)[C@@H](O)[C@H](O)[C@H]1O)=C\C=C\C=C(C)\C=C\C=C(/C)C(=O)O[C@@H]1[C@H](O)C[C@@](O)(C(=O)O)C[C@H]1OC(=O)/C=C/c1ccc(O)c(O)c1 [Compound 5, neocrocin B]
Drug 10^−5 moL/L
  Neuroprotective effective rate (recovery of viability relative to glutamate model): 40.03 ± 3.91 %
Drug 10^−6 moL/L
  Neuroprotective effective rate (recovery of viability relative to glutamate model): 27.63 ± 5.36 %
Drug 10^−7 moL/L
  Neuroprotective effective rate (recovery of viability relative to glutamate model): 9.89 ± 2.93%

## CC(/C=C/C=C(\C)C(=O)O)=C\C=C\C=C(C)\C=C\C=C(/C)C(=O)O[C@@H]1OC(CO)[C@@H](O)C(O)C1O (stereo partly drawn) [Compound 9, crocetin mono-β-D-glucopyranoside]
Drug 10^−5 moL/L
  Neuroprotective effective rate (recovery of viability relative to glutamate model): 0.00 ± 0.00%
Drug 10^−6 moL/L
  Neuroprotective effective rate (recovery of viability relative to glutamate model): 0.00 ± 0.00%
Drug 10^−7 moL/L
  Neuroprotective effective rate (recovery of viability relative to glutamate model): 0.00 ± 0.00%
